For the test, the target named is c-Met (Homo sapiens, UniProt P08581). The experiment in a line: Ki determination for the inhibition of c-Met kinase activity (standard coupled enzyme system). The class given is biochemical. To be noted: coupled enzyme system, 200 μM ATP, 80 nM c-Met, 30° C.; read-out: c-Met Ki. In short, it runs like this:
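Continuous coupled-enzyme (PK/LDH, NADH depletion) assay with 80 nM c-Met, 200 μM ATP and 10 μM polyGluTyr in 100 mM HEPES pH 7.5, 10 mM MgCl2, 1.5% DMSO at 30 °C.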
Sequence of c-Met (P08581 25-1390): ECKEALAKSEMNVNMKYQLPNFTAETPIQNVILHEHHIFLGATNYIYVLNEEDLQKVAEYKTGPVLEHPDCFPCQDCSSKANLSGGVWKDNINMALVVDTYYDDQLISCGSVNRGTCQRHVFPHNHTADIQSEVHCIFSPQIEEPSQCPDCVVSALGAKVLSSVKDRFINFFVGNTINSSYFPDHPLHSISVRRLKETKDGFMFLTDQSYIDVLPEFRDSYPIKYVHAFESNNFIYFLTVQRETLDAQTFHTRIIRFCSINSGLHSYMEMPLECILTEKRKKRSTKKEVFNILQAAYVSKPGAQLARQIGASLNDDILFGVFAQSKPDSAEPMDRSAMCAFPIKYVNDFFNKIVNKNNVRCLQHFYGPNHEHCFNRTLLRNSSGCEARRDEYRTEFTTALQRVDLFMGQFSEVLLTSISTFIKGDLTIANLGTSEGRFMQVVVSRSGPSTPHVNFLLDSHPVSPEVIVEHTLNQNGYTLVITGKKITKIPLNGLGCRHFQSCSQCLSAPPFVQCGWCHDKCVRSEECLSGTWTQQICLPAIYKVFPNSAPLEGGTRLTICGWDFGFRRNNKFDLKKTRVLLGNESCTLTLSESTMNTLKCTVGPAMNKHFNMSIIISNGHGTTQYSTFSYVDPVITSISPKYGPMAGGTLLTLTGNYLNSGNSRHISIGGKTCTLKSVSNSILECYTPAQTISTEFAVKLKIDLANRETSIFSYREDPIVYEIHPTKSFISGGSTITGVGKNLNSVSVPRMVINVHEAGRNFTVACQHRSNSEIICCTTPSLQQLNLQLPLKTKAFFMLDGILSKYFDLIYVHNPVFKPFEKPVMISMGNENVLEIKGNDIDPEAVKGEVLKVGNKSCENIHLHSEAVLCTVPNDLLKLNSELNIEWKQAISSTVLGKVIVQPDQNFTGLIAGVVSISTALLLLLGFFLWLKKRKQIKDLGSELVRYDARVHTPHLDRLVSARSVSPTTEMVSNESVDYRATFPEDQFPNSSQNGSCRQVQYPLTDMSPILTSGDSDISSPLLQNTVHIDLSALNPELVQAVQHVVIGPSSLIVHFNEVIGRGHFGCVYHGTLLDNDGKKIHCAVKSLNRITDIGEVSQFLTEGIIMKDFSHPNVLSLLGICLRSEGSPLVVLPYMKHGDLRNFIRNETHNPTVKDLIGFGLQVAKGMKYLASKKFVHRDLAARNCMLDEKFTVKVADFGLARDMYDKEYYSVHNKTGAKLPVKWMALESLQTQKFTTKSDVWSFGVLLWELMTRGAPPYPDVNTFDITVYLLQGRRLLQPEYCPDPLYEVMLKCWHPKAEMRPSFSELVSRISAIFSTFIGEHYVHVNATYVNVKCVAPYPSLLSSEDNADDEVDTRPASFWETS
With `Clc1cccc(Nc2ccc3nnc(CNc4cccc5[nH]ccc45)n3n2)c1` [Compound 464], the inhibition constant Ki is greater than 2000 nM.

On to `Clc1cccc(Nc2ccc3nnc(CNc4ccc5[nH]ccc5c4)n3n2)c1` [Compound 465], for which the Ki was greater than 2000 nM.

As for `Nc1cc(OCc2nnc3ccc(Nc4cccc(Cl)c4)nn23)c2ccccc2n1` [Compound 466], the Ki is greater than 2000 nM.

On to `NC(=O)c1ccc(NCc2nnc3ccc(Nc4cccc(Cl)c4)nn23)cc1` [Compound 467], for which the Ki is 100 to 2000 nM.

Take `CC(=O)Nc1cccc(OCc2nnc3ccc(Nc4cccc(Cl)c4)nn23)c1` [Compound 468]: the Ki fell in the range of 100 to 2000 nM.

For the molecule `CC(=O)Nc1ccc(OCc2nnc3ccc(Nc4cccc(Cl)c4)nn23)cc1` [Compound 469], the inhibitory constant (Ki) is greater than 2000 nM.

In the case of `NC(=O)c1ccc(OCc2nnc3ccc(Nc4cccc(Cl)c4)nn23)cc1` [Compound 470], the inhibition constant Ki fell in the range of 100 to 2000 nM.

On to `N#Cc1cccc(OCc2nnc3ccc(Nc4cccc(Cl)c4)nn23)c1` [Compound 471], for which the Ki is greater than 2000 nM.

`Clc1cccc(Nc2ccc3nnc(COc4ccc5nonc5c4)n3n2)c1` [Compound 472]: the Ki was greater than 2000 nM.

As to `N#Cc1ccc(Cc2nnc3ccc(Nc4cccc(Cl)c4)nn23)cc1` [Compound 474], the Ki was in the range of 100 to 2000 nM.

Take `O=[N+]([O-])c1ccc(Cc2nnc3ccc(Nc4cccc(Cl)c4)nn23)cc1` [Compound 475]: the inhibition constant (Ki) is greater than 2000 nM.

As to `NC(=O)c1cc(Cc2nnc3ccc(Nc4cccc(Cl)c4)nn23)ccc1F` [Compound 476], the Ki is greater than 2000 nM.

Take `Clc1cccc(Nc2ccc3nnc(CNc4ccc5cc[nH]c5c4)n3n2)c1` [Compound 477]: the Ki was greater than 2000 nM.

With `NC(=O)c1ncccc1OCc1nnc2ccc(Nc3cccc(Cl)c3)nn12` [Compound 478], the Ki was greater than 2000 nM.

Take `COC(=O)c1ccc(NCc2nnc3ccc(Nc4cccc(Cl)c4)nn23)nc1` [Compound 479]: the Ki was in the range of 100 to 2000 nM.

For `CC(=O)c1cn(Cc2nnc3ccc(Nc4cccc(Cl)c4)nn23)c2ncccc12` [Compound 480], the Ki is greater than 2000 nM.

In the case of `Oc1ccc(Cc2nnc3ccc(Nc4nc5ccc(Cl)cc5s4)nn23)cc1` [Compound 481], the Ki was in the range of 100 to 2000 nM.

Consider `Oc1ccc(Cc2nnc3ccc(Nc4nncs4)nn23)cc1` [Compound 482], for which the Ki was greater than 2000 nM.

Regarding `C[C@@H](c1ccc(O)cc1)c1nnc2ccc(Nc3nc4ccc(Cl)cc4s3)nn12` [Compound 483], the Ki is less than 100 nM.

For `C[C@@H](c1ccc(O)cc1)c1nnc2ccc(Nc3nncs3)nn12` [Compound 484], the Ki fell in the range of 100 to 2000 nM.

Consider `Clc1cccc(Nc2ccc3nnc(Cn4cnc5ccccc54)n3n2)c1` [Compound 485], for which the Ki is greater than 2000 nM.

For the molecule `Clc1cccc(Nc2ccc3nnc(Cn4nc(Cl)c5ccccc54)n3n2)c1` [Compound 486], the inhibitory constant (Ki) was greater than 2000 nM.

Turning to `Clc1cccc(Nc2ccc3nnc(CNc4ccc5cn[nH]c5c4)n3n2)c1` [Compound 487], the Ki is 100 to 2000 nM.

On to `Clc1cccc(Nc2ccc3nnc(CNc4ccc5[nH]ncc5c4)n3n2)c1` [Compound 488], for which the inhibition constant Ki fell in the range of 100 to 2000 nM.

Take `Clc1cccc(Nc2ccc3nnc(Cn4ncc5ccccc54)n3n2)c1` [Compound 489]: the inhibitory constant (Ki) was greater than 2000 nM.

With `Clc1cccc(Nc2ccc3nnc(COc4c[nH]c5ccccc45)n3n2)c1` [Compound 491], the inhibition constant Ki is greater than 2000 nM.

Take `NC(c1ccc(F)cc1)c1nnc2ccc(Nc3cccc(Cl)c3)nn12` (stereo not shown) [Compound 492]: the Ki is 100 to 2000 nM.

As for `CC(c1ccc(F)cc1)c1nnc2ccc(Nc3cccc(Cl)c3)nn12` (stereo not shown) [Compound 493], the inhibition constant Ki is less than 100 nM.

Turning to `NC(=O)c1ccc(Cc2nnc3ccc(Nc4cccc(Cl)c4)nn23)cc1` [Compound 494], the Ki fell in the range of 100 to 2000 nM.

As to `COc1ccc(Cc2nnc3ccc(Nc4cccc(Cl)c4)nn23)cc1C(N)=O` [Compound 496], the inhibition constant Ki is greater than 2000 nM.

Take `CCn1nccc1Nc1ccc2nnc([C@@H](C)c3ccc(O)cc3)n2n1` [Compound 497]: the Ki fell in the range of 100 to 2000 nM.

As to `C[C@@H](c1ccc(O)cc1)c1nnc2ccc(Nc3ccncn3)nn12` [Compound 498], the Ki was in the range of 100 to 2000 nM.

Consider `C[C@@H](c1ccc(O)cc1)c1nnc2ccc(Nc3nc4ccccc4s3)nn12` [Compound 499], for which the inhibition constant (Ki) fell in the range of 100 to 2000 nM.

For the molecule `Cc1nnc(Nc2ccc3nnc([C@@H](C)c4ccc(O)cc4)n3n2)s1` [Compound 500], the Ki was greater than 2000 nM.

As to `C[C@@H](c1ccc(O)cc1)c1nnc2ccc(Cl)nn12` [Compound 501], the inhibition constant (Ki) was 100 to 2000 nM.

With `O=c1ccc(Cc2nnc3ccc(Nc4cccc(Cl)c4)nn23)c[nH]1` [Compound 502], the inhibitory constant (Ki) is less than 100 nM.

As for `Clc1cccc(Nc2ccc3nnc(COc4ccc5c(c4)OCO5)n3n2)c1` [Compound 503], the inhibitory constant (Ki) was greater than 2000 nM.

On to `Clc1cccc(Nc2ccc3nnc(Cc4cc5c(cc4Cl)OCO5)n3n2)c1` [Compound 504], for which the Ki is 100 to 2000 nM.

Take `C[C@@H](c1ccc(O)cc1)c1nnc2ccc(Nc3ccnn3C)nn12` [Compound 505]: the inhibition constant Ki was 100 to 2000 nM.

With `C[C@@H](c1ccc(O)cc1)c1nnc2ccc(Nc3ccnc(Cl)c3)nn12` [Compound 506], the Ki is less than 100 nM.

Consider `C[C@@H](c1ccc(O)cc1)c1nnc2ccc(Sc3nc4ccccc4[nH]3)nn12` [Compound 507], for which the Ki was less than 100 nM.

`C[C@@H](c1ccc(O)cc1)c1nnc2ccc(Sc3nc[nH]n3)nn12` [Compound 508]: the Ki lay in the range of 100 to 2000 nM.

Take `C[C@@H](c1ccc(O)cc1)c1nnc2ccc(Nc3cc(Cl)cnc3Cl)nn12` [Compound 509]: the Ki is less than 100 nM.

Consider `C[C@@H](c1ccc(O)cc1)c1nnc2ccc(Nc3ccc(F)nc3)nn12` [Compound 510], for which the inhibitory constant (Ki) lay in the range of 100 to 2000 nM.

Turning to `C[C@@H](c1ccc(O)cc1)c1nnc2ccc(Sc3ncc[nH]3)nn12` [Compound 511], the Ki was greater than 2000 nM.

`C[C@@H](c1ccc(O)cc1)c1nnc2ccc(Nc3ccc(Cl)nn3)nn12` [Compound 512]: the Ki fell in the range of 100 to 2000 nM.

As for `CCOC(=O)c1sc(Nc2ccc3nnc([C@@H](C)c4ccc(O)cc4)n3n2)nc1C` [Compound 513], the inhibition constant (Ki) lay in the range of 100 to 2000 nM.

Turning to `C[C@@H](c1ccc(O)cc1)c1nnc2ccc(Nc3ccc(Cl)nc3)nn12` [Compound 514], the inhibition constant Ki is 100 to 2000 nM.

On to `CCc1nnc(Nc2ccc3nnc([C@@H](C)c4ccc(O)cc4)n3n2)s1` [Compound 515], for which the Ki was in the range of 100 to 2000 nM.

Turning to `Oc1c(Cc2nnc3ccc(Nc4cccc(Cl)c4)nn23)cnc2ncnn12` [Compound 516], the Ki is greater than 2000 nM.

Take `Clc1cccc(Nc2ccc3nnc(Cn4cncn4)n3n2)c1` [Compound 517]: the inhibition constant Ki lay within 100 to 2000 nM.

For the molecule `Clc1cccc(Nc2ccc3nnc(CNc4cccc5ncccc45)n3n2)c1` [Compound 518], the Ki was less than 100 nM.

As to `Clc1cccc(Nc2ccc3nnc(CNc4n[nH]c5ncccc45)n3n2)c1` [Compound 519], the Ki is less than 100 nM.

With `Oc1ccc(C2(c3nnc4ccc(Nc5ccnc(Cl)c5)nn34)CC2)cc1` [Compound 520], the Ki is less than 100 nM.

With `C[C@@H](c1ccc(O)cc1)c1nnc2ccc(NC3CCCC(C(F)(F)F)C3)nn12` (stereo partly shown) [Compound 521], the inhibition constant (Ki) was less than 100 nM.

Take `Oc1ccc(Cc2nnc3n2N=C(c2ccccc2)CS3)cc1` [Compound 522]: the Ki is less than 100 nM.

As to `c1ccc(C2=Nn3c(Cc4ccc5c(c4)OCO5)nnc3SC2)cc1` [Compound 523], the Ki was in the range of 100 to 2000 nM.

Take `Oc1ccc(Cc2nnc3n2N=C(c2c[nH]c4ncccc24)CS3)cc1` [Compound 524]: the Ki lay within 100 to 2000 nM.

One may read the Ki as the dissociation constant of the complex between target and ligand, obtained from inhibition or displacement.

Source of the values: patent publication US7998987B2, “Inhibitors of c-Met and uses thereof” (Vertex Pharmaceuticals Incorporated, priority 2005, dated 2011).
